Each structure is given as a SMILES string.

The target in the first experiment is Human recombinant DHX9 protein (Homo sapiens (Human), UniProt Q08211). Nature of the experiment: DHX9 ATPase assay (ADP-Glo).
Sequence of Human recombinant DHX9 protein (Q08211 whole entry): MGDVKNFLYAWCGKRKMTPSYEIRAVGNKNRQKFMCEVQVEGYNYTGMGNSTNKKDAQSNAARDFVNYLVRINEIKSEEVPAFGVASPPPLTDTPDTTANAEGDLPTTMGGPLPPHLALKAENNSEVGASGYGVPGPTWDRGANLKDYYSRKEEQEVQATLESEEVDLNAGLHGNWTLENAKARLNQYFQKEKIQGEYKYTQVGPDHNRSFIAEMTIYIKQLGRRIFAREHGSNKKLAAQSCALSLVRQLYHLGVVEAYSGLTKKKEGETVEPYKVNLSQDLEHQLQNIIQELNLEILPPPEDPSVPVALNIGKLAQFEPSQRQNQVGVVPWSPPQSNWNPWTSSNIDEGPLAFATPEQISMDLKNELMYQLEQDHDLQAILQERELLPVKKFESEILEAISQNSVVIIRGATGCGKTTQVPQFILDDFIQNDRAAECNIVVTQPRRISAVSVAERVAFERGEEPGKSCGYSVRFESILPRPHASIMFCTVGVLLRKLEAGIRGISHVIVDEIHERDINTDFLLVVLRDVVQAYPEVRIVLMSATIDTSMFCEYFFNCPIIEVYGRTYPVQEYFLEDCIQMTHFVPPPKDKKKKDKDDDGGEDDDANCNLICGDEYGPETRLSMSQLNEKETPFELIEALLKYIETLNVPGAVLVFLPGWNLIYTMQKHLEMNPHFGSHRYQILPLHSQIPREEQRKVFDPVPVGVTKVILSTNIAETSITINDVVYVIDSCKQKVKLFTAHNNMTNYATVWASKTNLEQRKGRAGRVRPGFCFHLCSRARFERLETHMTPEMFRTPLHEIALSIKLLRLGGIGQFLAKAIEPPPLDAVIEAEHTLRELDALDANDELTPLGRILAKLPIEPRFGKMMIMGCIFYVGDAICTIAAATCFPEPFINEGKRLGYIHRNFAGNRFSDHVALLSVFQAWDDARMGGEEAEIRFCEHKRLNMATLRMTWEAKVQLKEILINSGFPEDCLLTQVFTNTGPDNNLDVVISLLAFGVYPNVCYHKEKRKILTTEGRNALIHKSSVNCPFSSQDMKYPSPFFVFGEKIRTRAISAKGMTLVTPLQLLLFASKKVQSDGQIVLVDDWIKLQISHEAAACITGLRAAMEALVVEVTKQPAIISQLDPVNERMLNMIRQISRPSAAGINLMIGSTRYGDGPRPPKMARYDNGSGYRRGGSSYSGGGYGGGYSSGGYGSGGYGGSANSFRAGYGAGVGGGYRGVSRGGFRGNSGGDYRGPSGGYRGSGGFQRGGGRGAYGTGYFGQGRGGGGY
Settings: not given
It is filed as biochemical. For orientation: ADP-Glo turns the ADP formed in a reaction into a luminescent signal.
For `CCOc1cnc(-c2cc(C(=O)Nc3cc(Cl)cc(NS(C)(=O)=O)c3)cn2C)c(F)c1` [Example 453], the “DHX9 Biochemical Max Inhibition” value is given as 90.7.
With `COc1cnc(-c2cc(C(=O)Nc3cc(Cl)cc(NS(C)(=O)=O)c3)cn2C)c(F)c1` [Example 454], the “DHX9 Biochemical Max Inhibition” value was 82.9.
For the molecule `CCOc1cnc(-c2cc(C(=O)Nc3cc(Cl)cc(NS(C)(=O)=O)c3)sc2C)c(F)c1` [Example 456], the “DHX9 Biochemical Max Inhibition” value stood at 61.5.
The same measure, in the same setting: the value for `CC(C)Oc1cnc(-c2csc(C(=O)Nc3cc(Cl)cc(NS(C)(=O)=O)c3)c2)nc1` [Example 457] was 58.7; that for `CC(C)Oc1cnc(-c2csc(C(=O)Nc3cc(Cl)cc(NS(C)(=O)=O)c3)c2)c(F)c1` [Example 458] was 60.2; that for `CC(C)Oc1ccc(-c2csc(C(=O)Nc3cc(Cl)cc(NS(C)(=O)=O)c3)c2)nc1` [Example 459] was 65.7.
On to `Cc1cc(N2CC(F)(F)C2)cnc1-c1cc(C(=O)Nc2cc(Cl)cc(NS(C)(=O)=O)c2)cn1C` [Example 461], for which the “DHX9 Biochemical Max Inhibition” value is listed as 46.1.
On to `COc1cc(N2CC(F)(F)C2)cnc1-c1cc(C(=O)Nc2cc(Cl)cc(NS(C)(=O)=O)c2)cn1C` [Example 462], for which the “DHX9 Biochemical Max Inhibition” value was determined as 82.4.
As to `CCS(=O)(=O)Nc1cc(Cl)cc(NC(=O)c2cc(-c3ncc(N4CC(F)(F)C4)cn3)c(C)s2)c1` [Example 463], the “DHX9 Biochemical Max Inhibition” value amounted to 77.1.
As for `COC(=O)N1CCN(c2cnc(-c3cc(C(=O)Nc4cc(Cl)cc(NS(C)(=O)=O)c4)cn3C)c(F)c2)CC1` [Example 464], the “DHX9 Biochemical Max Inhibition” value was 74.8.
In the case of `COC1CN(c2ccc(-c3cc(C(=O)Nc4cc(Cl)cc(NS(C)(=O)=O)c4)cn3C)nc2)C1` [Example 465], the “DHX9 Biochemical Max Inhibition” value is reported as 85.3.
The same measure, in the same setting: the value for `Cn1cc(C(=O)Nc2cc(Cl)cc(NS(C)(=O)=O)c2)cc1-c1ncc(N2CC(F)C2)cc1F` [Example 466] was 82.2; that for `Cc1sc(C(=O)Nc2cc(Cl)cc(NS(C)(=O)=O)c2)cc1-c1ncc(N2CCC3(CC2)CC3)cc1F` [Example 467] was 99.3; that for `Cn1cc(C(=O)Nc2cc(Cl)cc(NS(C)(=O)=O)c2)cc1-c1ncc(N2CCC3(CC2)CC3)cc1F` [Example 468] was 96.
As to `Cn1cc(C(=O)Nc2cc(Cl)cc(NS(C)(=O)=O)c2)cc1-c1ncc(N2CCC(F)(F)CC2)cc1F` [Example 469], the “DHX9 Biochemical Max Inhibition” value was 83.4.
On the same count and under the same terms, for `Cn1cc(C(=O)Nc2cc(Cl)cc(NS(C)(=O)=O)c2)cc1-c1ncc(N2CC[Si](C)(C)CC2)cc1F` [Example 470] the value was 93.8.
Take `Cc1sc(C(=O)Nc2cc(Cl)cc(NS(C)(=O)=O)c2)cc1-c1ncc(N2CCC(F)(F)CC2)cc1F` [Example 471]: the “DHX9 Biochemical Max Inhibition” value amounted to 72.1.
On to `Cn1cc(C(=O)Nc2cc(Cl)cc(NS(C)(=O)=O)c2)cc1-c1ncc(N2CCC(C(F)(F)F)CC2)cc1F` [Example 472], for which the “DHX9 Biochemical Max Inhibition” value is reported as 60.9.
Still for that read-out and setting: for `Cc1sc(C(=O)Nc2cc(Cl)cc(NS(C)(=O)=O)c2)cc1-c1ncc(N2CC[Si](C)(C)CC2)cc1F` [Example 473] the value was 54.5; for `Cc1sc(C(=O)Nc2cc(Cl)cc(NS(C)(=O)=O)c2)cc1-c1ncc(N2CCC3(CC2)COC3)cc1F` [Example 474], 70.4.
Regarding `Cn1cc(C(=O)Nc2cc(Cl)cc(NS(C)(=O)=O)c2)cc1-c1ncc(N2CCC3(CC2)COC3)cc1F` [Example 475], the “DHX9 Biochemical Max Inhibition” value is on record as 64.7.
The same measure, in the same setting: the value for `Cc1sc(C(=O)Nc2cc(Cl)cc(NS(C)(=O)=O)c2)cc1-c1ncc(N2CC3C(C2)C3(C)C)cc1F` (centres unmarked) [Example 476] was 61.1; that for `Cc1sc(C(=O)Nc2cc(Cl)cc(NS(C)(=O)=O)c2)cc1-c1ncc(N2CCC3(CC2)CC3(F)F)cc1F` [Example 478] was 66.8.
In the case of `Cc1sc(C(=O)Nc2cc(Cl)cc(NS(C)(=O)=O)c2)cc1-c1ncc(N2CCC(F)(F)C2)cn1` [Example 479], the “DHX9 Biochemical Max Inhibition” value worked out at 69.6.
On the same count and under the same terms, for `Cc1sc(C(=O)Nc2cc(Cl)cc(NS(C)(=O)=O)c2)cc1-c1ncc(N2CCC3(C2)CC3(F)F)cc1F` (centres unmarked) [Example 480] the value was 67.4; for `Cc1sc(C(=O)Nc2cc(Cl)cc(NS(C)(=O)=O)c2)cc1-c1ncc(N2CCC(C(F)(F)F)CC2)cc1F` [Example 481], 62.1.
The same measure, in the same setting: for `Cc1sc(C(=O)Nc2cc(Cl)cc(NS(C)(=O)=O)c2)cc1-c1ncc(N2CCCC(F)(F)C2)cc1F` [Example 482] the value was 63.3; for `Cn1cc(C(=O)Nc2cc(Cl)cc(NS(C)(=O)=O)c2)cc1-c1ncc(N2CCCC(F)(F)C2)cc1F` [Example 483], 56.4.
`Cc1sc(C(=O)Nc2cc(Cl)cc(NS(C)(=O)=O)c2)cc1-c1ncc(N2CCC(F)(F)C2)cc1F` [Example 484]: the “DHX9 Biochemical Max Inhibition” value was 66.5.
Same read-out and setting: the value for `Cc1sc(C(=O)Nc2cc(Cl)cc(NS(C)(=O)=O)c2)cc1-c1ccc(N2CCC(F)(F)C2)cn1` [Example 485] was 66.5; that for `CS(=O)(=O)Nc1cc(Cl)cc(NC(=O)c2cc(-c3ncc(N4CC(F)(F)C4)cn3)cs2)c1` [Example 486] was 61.7; that for `CS(=O)(=O)Nc1cc(Cl)cc(NC(=O)c2cc(-c3ccc(N4CC(F)(F)C4)cn3)cs2)c1` [Example 487] was 64.3.
`CS(=O)(=O)Nc1cc(Cl)cc(NC(=O)c2cc(-c3ncc(N4CC(F)(F)C4)cc3F)cs2)c1` [Example 488]: the “DHX9 Biochemical Max Inhibition” value was 61.1.
Still for that read-out and setting: the value for `Cc1sc(C(=O)Nc2cc(Cl)cc(NS(C)(=O)=O)c2)cc1-c1ncc(N2CC(C(F)(F)F)C2)cn1` [Example 489] was 68.7.
`Cn1cc(C(=O)Nc2cc(Cl)cc(NS(C)(=O)=O)c2)cc1-c1ncc(N2CC3(C2)CC(F)(F)C3)cn1` [Example 492]: the “DHX9 Biochemical Max Inhibition” value is reported as 62.3.

Staying with this experiment, now noted: read-out: DHX9 Biochemical Inflection Point.
As to `CCOc1cnc(-c2cc(C(=O)Nc3cc(Cl)cc(NS(C)(=O)=O)c3)cn2C)c(F)c1` [Example 453], the IC50 amounted to 12.2 nM.
As for `COc1cnc(-c2cc(C(=O)Nc3cc(Cl)cc(NS(C)(=O)=O)c3)cn2C)c(F)c1` [Example 454], the IC50 worked out at 5 nM.
Still for that read-out and setting: for `CCOc1cnc(-c2cc(C(=O)Nc3cc(Cl)cc(NS(C)(=O)=O)c3)sc2C)c(F)c1` [Example 456] the value was 16.2 nM.
The same measure, in the same setting: for `CC(C)Oc1cnc(-c2csc(C(=O)Nc3cc(Cl)cc(NS(C)(=O)=O)c3)c2)nc1` [Example 457] the value was 20.2 nM; for `Cc1cc(N2CC(F)(F)C2)cnc1-c1cc(C(=O)Nc2cc(Cl)cc(NS(C)(=O)=O)c2)cn1C` [Example 461], 53.9 nM.
The same measure, in the same setting: the value for `COc1cc(N2CC(F)(F)C2)cnc1-c1cc(C(=O)Nc2cc(Cl)cc(NS(C)(=O)=O)c2)cn1C` [Example 462] was 9.1 nM.
For the molecule `CCS(=O)(=O)Nc1cc(Cl)cc(NC(=O)c2cc(-c3ncc(N4CC(F)(F)C4)cn3)c(C)s2)c1` [Example 463], the IC50 worked out at 8.5 nM.
In the case of `COC(=O)N1CCN(c2cnc(-c3cc(C(=O)Nc4cc(Cl)cc(NS(C)(=O)=O)c4)cn3C)c(F)c2)CC1` [Example 464], the IC50 stood at 5.7 nM.
The same measure, in the same setting: for `COC1CN(c2ccc(-c3cc(C(=O)Nc4cc(Cl)cc(NS(C)(=O)=O)c4)cn3C)nc2)C1` [Example 465] the value was 6.8 nM.
Consider `Cn1cc(C(=O)Nc2cc(Cl)cc(NS(C)(=O)=O)c2)cc1-c1ncc(N2CC(F)C2)cc1F` [Example 466], for which the IC50 is 11.1 nM.
Turning to `Cc1sc(C(=O)Nc2cc(Cl)cc(NS(C)(=O)=O)c2)cc1-c1ncc(N2CCC3(CC2)CC3)cc1F` [Example 467], the IC50 is 155 nM.
Regarding `Cn1cc(C(=O)Nc2cc(Cl)cc(NS(C)(=O)=O)c2)cc1-c1ncc(N2CCC3(CC2)CC3)cc1F` [Example 468], the IC50 worked out at 132 nM.
The same measure, in the same setting: for `Cn1cc(C(=O)Nc2cc(Cl)cc(NS(C)(=O)=O)c2)cc1-c1ncc(N2CCC(F)(F)CC2)cc1F` [Example 469] the value was 22.5 nM.
The same measure, in the same setting: the value for `Cn1cc(C(=O)Nc2cc(Cl)cc(NS(C)(=O)=O)c2)cc1-c1ncc(N2CC[Si](C)(C)CC2)cc1F` [Example 470] was 125 nM; that for `Cc1sc(C(=O)Nc2cc(Cl)cc(NS(C)(=O)=O)c2)cc1-c1ncc(N2CCC(F)(F)CC2)cc1F` [Example 471] was 29.2 nM.
As to `Cn1cc(C(=O)Nc2cc(Cl)cc(NS(C)(=O)=O)c2)cc1-c1ncc(N2CCC(C(F)(F)F)CC2)cc1F` [Example 472], the IC50 was 211 nM.
Consider `Cc1sc(C(=O)Nc2cc(Cl)cc(NS(C)(=O)=O)c2)cc1-c1ncc(N2CC[Si](C)(C)CC2)cc1F` [Example 473], for which the IC50 came to 313 nM.
For the molecule `Cc1sc(C(=O)Nc2cc(Cl)cc(NS(C)(=O)=O)c2)cc1-c1ncc(N2CCC3(CC2)COC3)cc1F` [Example 474], the IC50 amounted to 11.7 nM.
Same read-out and setting: for `Cn1cc(C(=O)Nc2cc(Cl)cc(NS(C)(=O)=O)c2)cc1-c1ncc(N2CCC3(CC2)COC3)cc1F` [Example 475] the value was 13.6 nM.
On the same count and under the same terms, for `Cc1sc(C(=O)Nc2cc(Cl)cc(NS(C)(=O)=O)c2)cc1-c1ncc(N2CC3C(C2)C3(C)C)cc1F` (centres unmarked) [Example 476] the value was 312 nM.
On to `Cc1sc(C(=O)Nc2cc(Cl)cc(NS(C)(=O)=O)c2)cc1-c1ncc(N2CCC3(CC2)CC3(F)F)cc1F` [Example 478], for which the IC50 amounted to 150 nM.
Consider `Cc1sc(C(=O)Nc2cc(Cl)cc(NS(C)(=O)=O)c2)cc1-c1ncc(N2CCC(F)(F)C2)cn1` [Example 479], for which the IC50 came out at 17.5 nM.
The same measure, in the same setting: for `Cc1sc(C(=O)Nc2cc(Cl)cc(NS(C)(=O)=O)c2)cc1-c1ncc(N2CCC3(C2)CC3(F)F)cc1F` (centres unmarked) [Example 480] the value was 146 nM.
In the case of `Cc1sc(C(=O)Nc2cc(Cl)cc(NS(C)(=O)=O)c2)cc1-c1ncc(N2CCC(C(F)(F)F)CC2)cc1F` [Example 481], the IC50 came to 204 nM.
Consider `Cc1sc(C(=O)Nc2cc(Cl)cc(NS(C)(=O)=O)c2)cc1-c1ncc(N2CCCC(F)(F)C2)cc1F` [Example 482], for which the IC50 stood at 66.5 nM.
Consider `Cn1cc(C(=O)Nc2cc(Cl)cc(NS(C)(=O)=O)c2)cc1-c1ncc(N2CCCC(F)(F)C2)cc1F` [Example 483], for which the IC50 came out at 67.3 nM.
`Cc1sc(C(=O)Nc2cc(Cl)cc(NS(C)(=O)=O)c2)cc1-c1ncc(N2CCC(F)(F)C2)cc1F` [Example 484]: the IC50 amounted to 33.5 nM.
Turning to `Cc1sc(C(=O)Nc2cc(Cl)cc(NS(C)(=O)=O)c2)cc1-c1ccc(N2CCC(F)(F)C2)cn1` [Example 485], the IC50 amounted to 19.1 nM.
As for `CS(=O)(=O)Nc1cc(Cl)cc(NC(=O)c2cc(-c3ncc(N4CC(F)(F)C4)cn3)cs2)c1` [Example 486], the IC50 is 17.9 nM.
Take `CS(=O)(=O)Nc1cc(Cl)cc(NC(=O)c2cc(-c3ccc(N4CC(F)(F)C4)cn3)cs2)c1` [Example 487]: the IC50 turned out to be 25.3 nM.
Same read-out and setting: the value for `CS(=O)(=O)Nc1cc(Cl)cc(NC(=O)c2cc(-c3ncc(N4CC(F)(F)C4)cc3F)cs2)c1` [Example 488] was 67.9 nM; that for `Cc1sc(C(=O)Nc2cc(Cl)cc(NS(C)(=O)=O)c2)cc1-c1ncc(N2CC(C(F)(F)F)C2)cn1` [Example 489] was 29.9 nM.
In the case of `Cn1cc(C(=O)Nc2cc(Cl)cc(NS(C)(=O)=O)c2)cc1-c1ncc(N2CC3(C2)CC(F)(F)C3)cn1` [Example 492], the IC50 worked out at 6.6 nM.

These data come from US20240316047A1, “INHIBITORS OF RNA HELICASE DHX9 AND USES THEREOF” (ACCENT THERAPEUTICS, INC., priority 2022, published 2024).
